Experimental data reported in patent US9260429B2, “Pyrido[3,4-B]indoles and methods of use” (Medivation Technologies, Inc., priority 2008, dated 2016).
Read-outs that look alike come from different tables or passages of the source.

Experiments:
[1] = system: rat central imidazoline I2 receptor; experiment: Central imidazoline I2 radioligand binding ([3H]Idazoxan); conditions: inhibition of specific [3H]Idazoxan binding
Experimental: To evaluate in radioligand binding assays the activity of compounds of the invention, rat central imidazoline I2 receptor obtained from Wistar Rat cerebral cortex (Brown, C. M. et al., Br. J. Pharmacol. 99:803, 1990) in a modified Tris-HCl buffer (50 mM Tris-HCl buffer, pH 7.4, 0.5 mM EDTA) was used. Compounds of the invention were incubated with 2 nM [^3H]Idazoxan for 30 minutes at 25° C. Non-specific binding was estimated in the presence of 1 μM Idazoxan. Receptor proteins were filtered and washed, the filters were then counted to determine [^3H]Idazoxan specifically bound. Compounds were screened at 1 μM or lower, using 1% DMSO as vehicle. Compounds of the invention were tested in this biochemical assay and percent inhibition of specific binding was determined.

[2] = molecular target: T1, human recombinant serotonin (5-Hydroxytryptamine) 5-HT7 receptor (Homo sapiens, UniProt P34969); experiment: Serotonin 5-HT7 radioligand binding ([3H]LSD); conditions: for inhibition at 0.003 µM: compound concentration 3 nM; for inhibition at 0.01 µM: compound concentration 10 nM; for inhibition at 0.03 µM: compound concentration 0.03 μM; for inhibition at 0.1 µM: compound concentration 0.1 μM; for inhibition at 0.3 µM: compound concentration 0.3 μM
T1 construct: expressed in transfected cells; host or cells: CHO cells
Method in brief: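 CHO-expressed human 5-HT7 receptor with 5.5 nM [3H]LSD in 50 mM Tris-HCl pH 7.4, 10 mM MgCl2, 0.5 mM EDTA, 2 h at 25 °C; nonspecific binding defined with serotonin. Filtration and counting. Compounds at ≤1 μM, 1% DMSO; % inhibition of specific binding.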

[3] = 2 h, read-out: Percent Inhibition of ligand binding Serotonin (1 μM ligand concentration) 5-HT7
[4] = read-out: Percentage inhibition of ligand binding to 5-HT7 receptor

T1 sequence (P34969 whole entry): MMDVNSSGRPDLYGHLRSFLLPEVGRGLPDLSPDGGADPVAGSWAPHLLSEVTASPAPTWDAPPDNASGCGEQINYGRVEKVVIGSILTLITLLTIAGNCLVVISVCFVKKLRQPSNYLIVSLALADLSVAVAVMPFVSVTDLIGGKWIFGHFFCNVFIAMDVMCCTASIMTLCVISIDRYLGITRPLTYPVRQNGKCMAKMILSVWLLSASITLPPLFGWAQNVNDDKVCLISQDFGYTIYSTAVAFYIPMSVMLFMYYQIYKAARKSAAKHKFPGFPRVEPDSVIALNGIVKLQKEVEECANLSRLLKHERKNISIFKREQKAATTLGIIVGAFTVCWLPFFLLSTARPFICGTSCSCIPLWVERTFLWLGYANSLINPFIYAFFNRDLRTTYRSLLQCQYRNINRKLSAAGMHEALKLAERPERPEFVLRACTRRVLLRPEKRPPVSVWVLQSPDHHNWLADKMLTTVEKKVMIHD

Cc1ccc2c(c1)c1c(n2CCc2ccc(C)nc2)CN(C)CC1 [Compound 1, 2,3,4,9-tetrahydro-2,6-dimethyl-9-(2-(6-methylpyridin-3-yl)ethyl)-1H-pyrido[3,4-b]indole]
Binding data (Percentage Inhibition) Imidazoline I2 Central (1 μM) [1]: 40%

Cc1ccc2c(c1)c1c(n2CCC2CCCCC2)CN(C)CC1 [Compound 2, 9-(2-cyclohexylethyl)-2,3,4,9-tetrahydro-2,6-dimethyl-1H-pyrido[3,4-b]indole]
Binding data (Percentage Inhibition) Imidazoline I2 Central (1 μM) [1]: 18%

CN1CCc2c(n(CCc3ccc(F)cc3)c3ccc(Cl)cc23)C1 [Compound 3, 9-(4-fluorophenethyl)-6-chloro-2,3,4,9-tetrahydro-2-methyl-1H-pyrido[3,4-b]indole]
Binding data (Percentage Inhibition) Imidazoline I2 Central (1 μM) [1]: 20%

CC1CCN(C(=O)Cn2c3c(c4cc(Cl)ccc42)CCN(C)C3)CC1 [Compound 38, 2-(6-chloro-1,2,3,4-tetrahydro-2-methylpyrido[3,4-b]indol-9-yl)-1-(4-methylpiperidin-1-vyl)ethanone]
Binding data (Percentage Inhibition) Imidazoline I2 Central (1 μM) [1]: 33%

CCC1c2c(c3cc(Cl)ccc3n2CCc2ccc(F)cc2)CCN1C (stereo not shown) [Compound 78]
inhibition at 1 µM [2, 3]: 99%

CCC1c2c(c3cc(Cl)ccc3n2CC(C)(O)c2ccc(F)cc2)CCN1C (stereo not shown) [Compound 79]
inhibition at 1 µM [2, 3]: 85%

Cc1ccc(CCn2c3c(c4cc(Cl)ccc42)CCN(C)C3C)cn1 (stereo not shown) [Compound 80]
inhibition at 1 µM [2, 3]: 82%

CC1c2c(c3cc(Cl)ccc3n2CCc2ccc(F)cc2)CCN1C (stereo not shown) [Compound 81]
inhibition at 1 µM [2, 3]: 82%

C/C(=C\n1c2c(c3cc(Cl)ccc31)CCN(C)C2)c1ccc(F)cc1 [Compound 90, (E)-6-chloro-9-(2-(4-fluorophenyl)prop-1-enyl)-2-methyl-2,3,4,9-tetrahydro-1H-pyrido[3,4-b]indole]
inhibition at 0.003 µM [2, 4]: -2%
inhibition at 0.01 µM [2, 4]: 15%
inhibition at 0.03 µM [2, 4]: 29%
inhibition at 0.1 µM [2, 4]: 63%
inhibition at 0.3 µM [2, 4]: 86%

C/C(=C\n1c2c(c3cc(C)ccc31)CCN(C)C2)c1ccc(F)cc1 [Compound 91, (E)-9-(2-(4-fluorophenyl)prop-1-enyl)-2,6-dimethyl-2,3,4,9-tetrahydro-1H-pyrido[3,4-b]indole]
inhibition at 0.003 µM [2, 4]: 19%
inhibition at 0.01 µM [2, 4]: 36%
inhibition at 0.03 µM [2, 4]: 53%
inhibition at 0.1 µM [2, 4]: 83%
inhibition at 0.3 µM [2, 4]: 87%

C/C(=C\n1c2c(c3cc(C)ccc31)CCN(C)C2)c1ccc(Cl)cc1 [Compound 97, 9-(2-(4-chlorophenyl)prop-1-enyl)-2,6-dimethyl-2,3,4,9-tetrahydro-1H-pyrido[3,4-b]indole]
inhibition at 1 µM [2, 3]: 98%

C/C(=C\n1c2c(c3cc(Cl)ccc31)CCN(C)C2)c1ccc(Cl)cc1 [Compound 98, 6-chloro-9-(2-(4-chlorophenyl)prop-1-enyl)-2-methyl-2,3,4,9-tetrahydro-1H-pyrido[3,4-b]indole]
inhibition at 1 µM [2, 3]: 94%

C/C(=C\n1c2c(c3cc(Cl)ccc31)CCN(C)C2C)c1ccc(Cl)cc1 (stereo not shown) [Compound 99, 6-chloro-9-(2-(4-chlorophenyl)prop-1-enyl)-1,2-dimethyl-2,3,4,9-tetrahydro-1H-pyrido[3,4-b]indole]
inhibition at 1 µM [2, 3]: 68%

CCC1c2c(c3cc(Cl)ccc3n2/C=C(\C)c2ccc(Cl)cc2)CCN1C (stereo not shown) [Compound 100, 6-chloro-9-(2-(4-chlorophenyl)prop-1-enyl)-1-ethyl-2-methyl-2,3,4,9-tetrahydro-1H-pyrido[3,4-b]indole]
inhibition at 1 µM [2, 3]: 42%

C#CCn1c2c(c3cc(Cl)ccc31)CCN(C)C2 [Compound 125, 6-chloro-2,3,4,9-tetrahydro-2-methyl-9-(prop-2-yn1)-1H-pyrido[3,4-b]indole]
Binding data (Percentage Inhibition) Imidazoline I2 Central (1 μM) [1]: 60%

CC1c2c(c3cc(Cl)ccc3n2C#Cc2ccc(F)cc2)CCN1C (stereo not shown) [Compound 128]
inhibition at 1 µM [2, 3]: 24%

CCC1c2c(c3cc(Cl)ccc3n2C#Cc2ccc(F)cc2)CCN1C (stereo not shown) [Compound 129]
inhibition at 1 µM [2, 3]: 15%

CC1c2c(c3cc(Cl)ccc3n2C#Cc2ccc(Cl)cc2)CCN1C (stereo not shown) [Compound 132, 6-chloro-9-((4-chlorophenyl)ethynyl)-1,2-dimethyl-2,3,4,9-tetrahydro-1H-pyrido[3,4-b]indole]
inhibition at 1 µM [2, 3]: 35%

CCC1c2c(c3cc(C)ccc3n2C(=O)Cc2ccc(F)cc2)CCN1C (stereo not shown) [Compound 159]
inhibition at 1 µM [2, 3]: 49%

CCC1c2c(c3cc(C)ccc3n2/C=C(\C)c2ccc(Cl)cc2)CCN1C (stereo not shown) [Compound 160, 9-(2-(4-chlorophenyl)prop-1-enyl)-1-ethyl-2,6-dimethyl-2,3,4,9-tetrahydro-1H-pyrido[3,4-b]indole]
inhibition at 1 µM [2, 3]: 84%

C/C(=C\n1c2c(c3cc(C)ccc31)CCN(C)C2C)c1ccc(Cl)cc1 (stereo not shown) [Compound 161, 9-(2-(4-chlorophenyl)prop-1-enyl)-1,2,6-trimethyl-2,3,4,9-tetrahydro-1H-pyrido[3,4-b]indole]
inhibition at 1 µM [2, 3]: 93%

CCC1c2c(c3cc(C)ccc3n2C#Cc2ccc(Cl)cc2)CCN1C (stereo not shown) [Compound 162, 9-((4-chlorophenyl)ethynyl)-1-ethyl-2,6-dimethyl-2,3,4,9-tetrahydro-1H-pyrido[3,4-b]indole]
inhibition at 1 µM [2, 3]: 27%

Cc1ccc2c(c1)c1c(n2C(=O)Cc2ccc(Cl)cc2)C(c2ccccc2)N(C)CC1 (stereo not shown) [Compound 163]
inhibition at 1 µM [2, 3]: 29%

C/C(=C\n1c2c(c3cc(C)ccc31)CCN(C)C2c1ccccc1)c1ccc(Cl)cc1 (stereo not shown) [Compound 164, 9-(2-(4-chlorophenyl)prop-1-enyl)-2,6-dimethyl-1-phenyl-2,3,4,9-tetrahydro-1H-pyrido[3,4-b]indole]
inhibition at 1 µM [2, 3]: 8%

C/C(=C/n1c2c(c3cc(C)ccc31)CCN(C)C2C)c1ccccc1F (stereo not shown) [Compound 165]
inhibition at 1 µM [2, 3]: 91%

C/C(=C\n1c2c(c3cc(C)ccc31)CCN(C)C2C)c1ccccc1F (stereo not shown) [Compound 166]
inhibition at 1 µM [2, 3]: 92%
inhibition at 1 µM ([2]; compound concentration 1 μM, read-out: Percentage inhibition of ligand binding to 5-HT7 receptor): 92%

C/C(=C/n1c2c(c3cc(Cl)ccc31)CCN(C)C2C)c1ccccc1F (stereo not shown) [Compound 167]
inhibition at 1 µM [2, 3]: 97%

C/C(=C\n1c2c(c3cc(Cl)ccc31)CCN(C)C2C)c1ccccc1F (stereo not shown) [Compound 168]
inhibition at 1 µM [2, 3]: 84%
